Assay results as given in ChEMBL document CHEMBL3616395, “Discovery of 4-arylamido 3-methyl isoxazole derivatives as novel FMS kinase inhibitors” (Eur J Med Chem, 2015).
The source made the active and inactive calls. The calls are words filed in the database; no cut-off is given here.

Columns and labels:
[1] = Cytotoxicity against human HS27 cells after 24 hrs by MTT assay; assay type: cell-based
U-937 = test: Antiproliferative activity against human U937 cells after 24 hrs by MTT assay; assay type: functional; settings: U-937, 24 h
A375P = test: Antiproliferative activity against human A375P cells after 24 hrs by MTT assay; assay type: functional, cell-based

Row | SMILES | GI50 at 24 h [1] [µM] | GI50 (U-937) [µM] | Activity (A375P)
1 | Cc1ccc(NC(=O)c2cc(-n3cncc3C)cc(C(F)(F)F)c2)cc1NC(=O)c1cnoc1C | > 30 | 0.026 | inactive
2 | Cc1ccc(NC(=O)c2ccc(N3CCOCC3)c(C(F)(F)F)c2)cc1NC(=O)c1cnoc1C | > 30 | 0.465 | inactive
3 | CNC(=O)c1cc(Oc2ccc(NC(=O)Nc3ccc(Cl)c(C(F)(F)F)c3)cc2)ccn1 [SORAFENIB] | > 30 |  | inactive
4 | Cc1cc(C)cc(C(=O)Nc2ccc(C)c(NC(=O)c3cnoc3C)c2)c1 | > 30 | 3.1 | inactive
5 | Cc1ccc(NC(=O)c2ccc(Cl)c(C(F)(F)F)c2)cc1NC(=O)c1cnoc1C | > 30 | > 30 | inactive
6 | Cc1ccc(NC(=O)Cc2ccccc2F)cc1NC(=O)c1cnoc1C | > 30 | > 30 | inactive
7 | Cc1cc(NC(=O)c2cc(N3CCN(C)CC3)cc(C(F)(F)F)c2)ccc1NC(=O)c1cnoc1C | > 30 | > 30 | inactive
8 | Cc1ccc(NC(=O)Nc2ccc(Cl)c(Cl)c2)cc1NC(=O)c1cnoc1C | > 30 | 1.89 | inactive
9 | Cc1cc(NC(=O)Nc2cccc(C(F)(F)F)c2)ccc1NC(=O)c1cnoc1C | > 30 | > 30 | inactive
10 | Cc1ccc(NC(=O)Nc2ccc(Cl)cc2)cc1NC(=O)c1cnoc1C | > 30 | > 30 | inactive
11 | Cc1ccc(NC(=O)C2(C)CCc3c(C)c(O)c(C)c(C)c3O2)cc1NC(=O)c1cnoc1C (stereo not given) | > 30 | > 30 | inactive
12 | Cc1ccc(NC(=O)c2ccccc2Sc2ccccc2C#N)cc1NC(=O)c1cnoc1C | > 30 | > 30 | inactive
13 | CCCS(=O)(=O)Nc1ccc(C)c(NC(=O)c2cnoc2C)c1 | > 30 | > 30 | inactive
14 | Cc1ccc(NC(=O)Nc2cccc(Cl)c2)cc1NC(=O)c1cnoc1C | > 30 | > 30 | inactive
15 | Cc1ccc(NC(=O)C(c2ccc(Cl)cc2)c2ccc(Cl)cc2)cc1NC(=O)c1cnoc1C | > 30 | > 30 | inactive
16 | Cc1ccc(NC(=O)Cc2ccc(-c3ccccc3)cc2)cc1NC(=O)c1cnoc1C | > 30 | > 30 | inactive
17 | Cc1ccc(NC(=O)Nc2cccc(C(F)(F)F)c2)cc1NC(=O)c1cnoc1C | > 30 | > 30 | inactive
